Data on six molecules can be found in ChEMBL document CHEMBL3046843, “Synthesis and investigation of anti-inflammatory activity of novel nitric oxide donating hybrid drugs” (Med Chem Res, 2013).

The subject of data set [1] is Rattus norvegicus. The data set can be described thus: Anti-inflammatory activity in Rattus norvegicus (rat) assessed as inhibition of carrageenan-induced paw edema at 14 mg/kg, po administered at 1 hr prior to carrageenan-challenge measured after 3 hr relative to control. It counts as functional. In general terms: Carrageenan injected into the paw causes an acute inflammation.

In data set [2] the test system is Rattus norvegicus. The data set can be described thus: Ulcerogenic activity in fasted albino Rattus norvegicus (rat) at 14 mg/kg, po administered QD for 3 days measured on day 4. It counts as toxicity, organism-based. More on the design: dose 14 mg/kg, route oral. As to conditions: in vivo, 72 h.
Data set [3] has as its system Mus musculus. The data set can be described thus: Analgesic activity in Mus musculus (mouse) assessed as inhibition of acetic acid-induced writhing at 14 mg/kg, po measured after 25 min relative to control. It counts as functional. Background: In writhing tests, fewer writhes than in controls are read as antinociception.
The subject of data set [4] is Rattus norvegicus. The data set can be described thus: Anti-inflammatory activity in Rattus norvegicus (rat) assessed as inhibition of carrageenan-induced paw edema at 14 mg/kg, po administered at 1 hr prior to carrageenan-challenge measured after 2 hr relative to control. It counts as functional.
Data set [5] relates to Rattus norvegicus. The data set can be described thus: Ulcerogenic activity in fasted albino Rattus norvegicus (rat) assessed as stomach mucosal injury at 14 mg/kg, po administered QD for 3 days measured on day 4 by electron microscopic analysis. Type of data set: toxicity, organism-based. More on the design: dose 14 mg/kg, route oral. As to conditions: in vivo, 72 h.
For data set [6], the system named is Rattus norvegicus. The data set can be described thus: Anti-inflammatory activity in Rattus norvegicus (rat) assessed as inhibition of carrageenan-induced paw edema at 14 mg/kg, po administered at 1 hr prior to carrageenan-challenge measured after 1 hr relative to control. Type of data set: functional.
The nature of data set [7]: Induction of nitric oxide release in phosphate buffer at 10^-4 M after 1 hr at pH 7.4 by Griess method in presence of L-cysteine relative to control. Type of data set: physicochemical. As to conditions: pH 7.4, 1 h, 100 µM. Background: Nitrite, measured by Griess reagent, commonly stands in for NO production.
Data set [8] deals with Rattus norvegicus. The data set can be described thus: Anti-inflammatory activity in Rattus norvegicus (rat) assessed as inhibition of carrageenan-induced paw edema at 14 mg/kg, po administered at 1 hr prior to carrageenan-challenge measured after 4 hr relative to control. It counts as functional.
The subject of data set [9] is Rattus norvegicus. The data set can be described thus: Anti-inflammatory activity in Rattus norvegicus (rat) assessed as inhibition of carrageenan-induced paw edema at 12 mg/kg, po administered at 1 hr prior to carrageenan-challenge measured after 2 hr relative to control. Type of data set: functional.
The test system of data set [10] is Mus musculus. The data set can be described thus: Analgesic activity in Mus musculus (mouse) assessed as inhibition of acetic acid-induced writhing at 12 mg/kg, po measured after 25 min relative to control. It counts as functional.
For data set [11], the system named is Rattus norvegicus. The data set can be described thus: Anti-inflammatory activity in Rattus norvegicus (rat) assessed as inhibition of carrageenan-induced paw edema at 12 mg/kg, po administered at 1 hr prior to carrageenan-challenge measured after 3 hr relative to control. Type of data set: functional.
Data set [12] relates to Rattus norvegicus. The data set can be described thus: Anti-inflammatory activity in Rattus norvegicus (rat) assessed as inhibition of carrageenan-induced paw edema at 12 mg/kg, po administered at 1 hr prior to carrageenan-challenge measured after 1 hr relative to control. Type of data set: functional.
For data set [13], the system named is Rattus norvegicus. The data set can be described thus: Anti-inflammatory activity in Rattus norvegicus (rat) assessed as inhibition of carrageenan-induced paw edema at 12 mg/kg, po administered at 1 hr prior to carrageenan-challenge measured after 4 hr relative to control. It counts as functional.
Data set [14] deals with Rattus norvegicus. The data set can be described thus: Ulcerogenic activity in fasted albino Rattus norvegicus (rat) at 12 mg/kg, po administered QD for 3 days measured on day 4. Type of data set: toxicity, organism-based. More on the design: dose 12 mg/kg, route oral. As to conditions: in vivo, 72 h.
Data set [15] deals with Rattus norvegicus. The data set can be described thus: Anti-inflammatory activity in Rattus norvegicus (rat) assessed as inhibition of carrageenan-induced paw edema at 13 mg/kg, po administered at 1 hr prior to carrageenan-challenge measured after 1 hr relative to control. It counts as functional.
Data set [16] has as its system Rattus norvegicus. The data set can be described thus: Anti-inflammatory activity in Rattus norvegicus (rat) assessed as inhibition of carrageenan-induced paw edema at 13 mg/kg, po administered at 1 hr prior to carrageenan-challenge measured after 3 hr relative to control. It counts as functional.
Data set [17] has as its system Rattus norvegicus. The data set can be described thus: Ulcerogenic activity in fasted albino Rattus norvegicus (rat) at 13 mg/kg, po administered QD for 3 days measured on day 4. Type of data set: toxicity, organism-based. More on the design: dose 13 mg/kg, route oral. As to conditions: in vivo, 72 h.
Data set [18] relates to Rattus norvegicus. The data set can be described thus: Anti-inflammatory activity in Rattus norvegicus (rat) assessed as inhibition of carrageenan-induced paw edema at 13 mg/kg, po administered at 1 hr prior to carrageenan-challenge measured after 2 hr relative to control. It counts as functional.
The subject of data set [19] is Mus musculus. The data set can be described thus: Analgesic activity in Mus musculus (mouse) assessed as inhibition of acetic acid-induced writhing at 13 mg/kg, po measured after 25 min relative to control. It counts as functional.
Data set [20] has as its system Rattus norvegicus. The data set can be described thus: Ulcerogenic activity in fasted albino Rattus norvegicus (rat) assessed as stomach mucosal injury at 13 mg/kg, po administered QD for 3 days measured on day 4 by electron microscopic analysis. As to conditions: in vivo, 72 h. It counts as toxicity, organism-based. More on the design: dose 13 mg/kg, route oral.

For data set [21], the system named is Rattus norvegicus. The data set can be described thus: Anti-inflammatory activity in Rattus norvegicus (rat) assessed as inhibition of carrageenan-induced paw edema at 13 mg/kg, po administered at 1 hr prior to carrageenan-challenge measured after 4 hr relative to control. Type of data set: functional.
In data set [22] the test system is Rattus norvegicus. The data set can be described thus: Anti-inflammatory activity in Rattus norvegicus (rat) assessed as inhibition of carrageenan-induced paw edema at 10 mg/kg, po administered at 1 hr prior to carrageenan-challenge measured after 2 hr relative to control. Type of data set: functional.
Data set [23] relates to Rattus norvegicus. The data set can be described thus: Anti-inflammatory activity in Rattus norvegicus (rat) assessed as inhibition of carrageenan-induced paw edema at 10 mg/kg, po administered at 1 hr prior to carrageenan-challenge measured after 3 hr relative to control. It counts as functional.
Data set [24] relates to Rattus norvegicus. The data set can be described thus: Anti-inflammatory activity in Rattus norvegicus (rat) assessed as inhibition of carrageenan-induced paw edema at 10 mg/kg, po administered at 1 hr prior to carrageenan-challenge measured after 1 hr relative to control. Type of data set: functional.
Data set [25] concerns Mus musculus. The data set can be described thus: Analgesic activity in Mus musculus (mouse) assessed as inhibition of acetic acid-induced writhing at 10 mg/kg, po measured after 25 min relative to control. It counts as functional.
Data set [26] relates to Rattus norvegicus. The data set can be described thus: Anti-inflammatory activity in Rattus norvegicus (rat) assessed as inhibition of carrageenan-induced paw edema at 10 mg/kg, po administered at 1 hr prior to carrageenan-challenge measured after 4 hr relative to control. Type of data set: functional.
Data set [27] concerns Rattus norvegicus. The data set can be described thus: Ulcerogenic activity in fasted albino Rattus norvegicus (rat) at 10 mg/kg, po administered QD for 3 days measured on day 4. It counts as toxicity, organism-based. As to conditions: in vivo, 72 h. More on the design: dose 10 mg/kg, route oral.
For data set [28], the system named is Rattus norvegicus. The data set can be described thus: Anti-inflammatory activity in Rattus norvegicus (rat) assessed as inhibition of carrageenan-induced paw edema at 20 mg/kg, po administered at 1 hr prior to carrageenan-challenge measured after 3 hr relative to control. It counts as functional.
Data set [29] has as its system Rattus norvegicus. The data set can be described thus: Anti-inflammatory activity in Rattus norvegicus (rat) assessed as inhibition of carrageenan-induced paw edema at 20 mg/kg, po administered at 1 hr prior to carrageenan-challenge measured after 2 hr relative to control. Type of data set: functional.
The subject of data set [30] is Rattus norvegicus. The data set can be described thus: Anti-inflammatory activity in Rattus norvegicus (rat) assessed as inhibition of carrageenan-induced paw edema at 20 mg/kg, po administered at 1 hr prior to carrageenan-challenge measured after 1 hr relative to control. It counts as functional.
Data set [31] has as its system Mus musculus. The data set can be described thus: Analgesic activity in Mus musculus (mouse) assessed as inhibition of acetic acid-induced writhing at 20 mg/kg, po measured after 25 min relative to control. It counts as functional.
In data set [32] the test system is Rattus norvegicus. The data set can be described thus: Anti-inflammatory activity in Rattus norvegicus (rat) assessed as inhibition of carrageenan-induced paw edema at 20 mg/kg, po administered at 1 hr prior to carrageenan-challenge measured after 4 hr relative to control. It counts as functional.

In the case of `CC(=O)Nc1ccc(OC(=O)c2ccccc2N(CCO[N+](=O)[O-])c2ccc(C)cc2)cc1`, the inhibition in vivo (commonly the drop in the measured response relative to a control, in per cent) at 14 mg/kg with Rattus norvegicus [1] is 24.4%; in the data set with Mus musculus [3], 21.8%; with Rattus norvegicus [4] it was 18%; in the data set on Rattus norvegicus [6], 30%; in the data set on Rattus norvegicus [8], 36.8%. Moreover, the Activity entry in the data set on Rattus norvegicus [2] is “Non-toxic”; in the data set on Rattus norvegicus [5], “Non-toxic”; in data set [7], 7.31%.

With `CC(=O)Nc1ccc(OC(=O)c2ccccc2N(CCO[N+](=O)[O-])c2ccc(S(N)(=O)=O)cc2)cc1`, the inhibition in vivo at 12 mg/kg in the data set with Rattus norvegicus [9] worked out at 11.5%; with Mus musculus [10], 26.2%; in the data set on Rattus norvegicus [11] it was 8.46%; with Rattus norvegicus [12] it was 8.33%; in the data set on Rattus norvegicus [13], 9.41%. Moreover, the Activity is 5.88% in [7] and “Non-toxic” with Rattus norvegicus [14].

With `CC(=O)Nc1ccc(OC(=O)c2ccccc2N(CCO[N+](=O)[O-])c2ccc([N+](=O)[O-])cc2)cc1`, the inhibition in vivo at 13 mg/kg is 6.67% in the data set on Rattus norvegicus [15]; 23.3% with Rattus norvegicus [16]; 11.9% in the data set on Rattus norvegicus [18]; 13.8% in the data set with Mus musculus [19]; 32.1% with Rattus norvegicus [21]. Moreover, the Activity entry in the data set on Rattus norvegicus [17] is listed as “Non-toxic”; in data set [7], 6.98%; in the data set with Rattus norvegicus [20], “Non-toxic”.

Turning to `CC(=O)Nc1ccc(OC(=O)c2ccc(N(CCO[N+](=O)[O-])c3ccccc3C(=O)Oc3ccc(NC(C)=O)cc3)cc2)cc1`, the inhibition in vivo at 10 mg/kg in the data set with Rattus norvegicus [22] is 18.7%; with Rattus norvegicus [23] it was 13.7%; with Rattus norvegicus [24], 11.7%; with Mus musculus [25], 11.2%; in the data set on Rattus norvegicus [26], 12.1%. Further, the Activity entry in the data set on Rattus norvegicus [27] is on record as “Non-toxic”; in data set [7], 2.46%.

`CC(=O)Nc1ccc(OC(=O)c2ccccc2N(CCO[N+](=O)[O-])c2ccccc2)cc1`: the inhibition in vivo at 14 mg/kg with Rattus norvegicus [1] was found to be 65.8%; in the data set on Mus musculus [3], 15.4%; with Rattus norvegicus [4], 55.2%; with Rattus norvegicus [6], 26.7%; with Rattus norvegicus [8], 59.6%. The Activity result in the data set on Rattus norvegicus [2] is “Non-toxic”; in the data set on Rattus norvegicus [5] it was “Non-toxic”; in data set [7], 10.71%.

On to `O=C(O)Cc1ccccc1Nc1c(Cl)cccc1Cl` [DICLOFENAC SODIUM], for which the inhibition in vivo at 20 mg/kg in the data set with Rattus norvegicus [28] turned out to be 73.3%; in the data set with Rattus norvegicus [29], 42.1%; in the data set with Rattus norvegicus [30], 45%; with Mus musculus [31], 8.2%; with Rattus norvegicus [32], 73.4%.
